Results on 1 molecule are retold here after ChEMBL document CHEMBL4680347, “Discovery of novel 1,3,5-triazine derivatives as potent inhibitor of cervical cancer via dual inhibition of PI3K/mTOR” (Bioorg Med Chem, 2021).

Calls of active or inactive are those of the source. The rule behind the calls is not given here.

For one assay, the system named is MDA-MB-231. Put plainly: Anticancer activity against human […] cells assessed as inhibition of cell proliferation measured after 48 hrs by MTT assay. The following applies: MDA-MB-231, 48 h. The class given is functional, cell-based. On the technique in general: Tetrazolium dyes change colour on reduction, which living cells bring about.
Assay [1] addresses Phosphatidylinositol 4,5-bisphosphate 3-kinase catalytic subunit alpha isoform (Homo sapiens, UniProt P42336). Put plainly: Inhibition of PI3Kalpha (unknown origin) measured after 1 hr by ADP-glo plus luminescence assay. On the technique in general: ADP-Glo first removes unused ATP, then detects ADP through luciferase.
Assay [2] concerns the target Phosphatidylinositol 4,5-bisphosphate 3-kinase catalytic subunit beta isoform (Homo sapiens, UniProt P42338). Put plainly: Inhibition of PI3Kbeta (unknown origin) measured after 1 hr by ADP-glo plus luminescence assay.
Assay [3] concerns the target Phosphatidylinositol 4,5-bisphosphate 3-kinase catalytic subunit gamma isoform (Homo sapiens, UniProt P48736). Put plainly: Inhibition of PI3Kgamma (unknown origin) measured after 1 hr by ADP-glo plus luminescence assay.
The target in assay [4] is T1, Phosphatidylinositol 4,5-bisphosphate 3-kinase catalytic subunit delta isoform (Homo sapiens, UniProt O00329).
T1 sequence (O00329 whole entry): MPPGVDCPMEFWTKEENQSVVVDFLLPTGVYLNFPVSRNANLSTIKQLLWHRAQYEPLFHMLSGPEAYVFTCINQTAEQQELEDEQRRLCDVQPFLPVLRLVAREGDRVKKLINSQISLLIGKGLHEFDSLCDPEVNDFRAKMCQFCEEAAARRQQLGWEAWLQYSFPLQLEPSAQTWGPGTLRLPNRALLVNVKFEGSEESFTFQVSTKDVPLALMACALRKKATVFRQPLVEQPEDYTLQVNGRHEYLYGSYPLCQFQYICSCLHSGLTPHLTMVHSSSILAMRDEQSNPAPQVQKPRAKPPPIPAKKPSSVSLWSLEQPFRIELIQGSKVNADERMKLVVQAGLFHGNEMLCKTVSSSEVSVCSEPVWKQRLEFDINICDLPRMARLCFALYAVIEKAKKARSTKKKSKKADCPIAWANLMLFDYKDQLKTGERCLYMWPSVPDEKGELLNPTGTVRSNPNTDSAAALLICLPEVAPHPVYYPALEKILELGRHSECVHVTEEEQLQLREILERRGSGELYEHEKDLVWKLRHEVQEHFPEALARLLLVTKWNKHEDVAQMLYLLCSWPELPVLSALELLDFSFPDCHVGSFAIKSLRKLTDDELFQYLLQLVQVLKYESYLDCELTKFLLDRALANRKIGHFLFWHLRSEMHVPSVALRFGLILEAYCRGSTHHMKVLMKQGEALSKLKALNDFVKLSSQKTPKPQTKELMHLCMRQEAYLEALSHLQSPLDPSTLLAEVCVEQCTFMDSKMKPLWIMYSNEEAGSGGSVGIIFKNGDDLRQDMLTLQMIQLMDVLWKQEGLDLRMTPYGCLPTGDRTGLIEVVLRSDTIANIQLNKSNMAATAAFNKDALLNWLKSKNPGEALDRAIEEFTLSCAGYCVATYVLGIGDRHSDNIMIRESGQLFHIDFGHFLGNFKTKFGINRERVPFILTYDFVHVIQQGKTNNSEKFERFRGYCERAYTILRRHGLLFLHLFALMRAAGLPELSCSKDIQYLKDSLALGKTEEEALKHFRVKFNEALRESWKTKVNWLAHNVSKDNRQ
Put plainly: Inhibition of PI3Kdelta (unknown origin) measured after 1 hr by ADP-glo plus luminescence assay.

In another assay the test system is MCF7. In words: Anticancer activity against human MCF-7 cells assessed as inhibition of cell proliferation measured after 48 hrs by MTT assay. The class given is functional, cell-based. The following applies: MCF7, 48 h.
For a further assay, the system named is HepG2. In words: Anticancer activity against human HepG2 cells assessed as inhibition of cell proliferation measured after 48 hrs by MTT assay. The following applies: HepG2, 48 h. The class given is functional, cell-based.
Assay [5] concerns HeLa. In words: Antiproliferative activity against human HeLa cells assessed as reduction in cell viability incubated for 24 to 72 hr by MTT assay. It is filed as functional, cell-based. The following applies: dose microM <=12, time 24-72 hrs.
The subject of assay [6] is HeLa. Put plainly: Induction of cell cycle arrest in human HeLa cells assessed as accumulation at G1 phase at 4 uM after 24 hrs by RNase A/PI-staining based flow cytometric analysis (reference value: 52.21%). The class given is functional.
For assay [7], the system named is HeLa. Put plainly: Induction of cell cycle arrest in human HeLa cells assessed as accumulation at G2 phase at 8 uM after 24 hrs by RNase A/PI-staining based flow cytometric analysis (reference value: 30.62%). The class given is functional. In general terms: A flow cytometer gives signals particle by particle.
Assay [8] has as its system HeLa. In words: Induction of cell cycle arrest in human HeLa cells assessed as accumulation at G1 phase at 12 uM after 24 hrs by RNase A/PI-staining based flow cytometric analysis (reference value: 52.21%). It is filed as functional.
The subject of assay [9] is HeLa. In words: Induction of cell cycle arrest in human HeLa cells assessed as accumulation at G2 phase at 12 uM after 24 hrs by RNase A/PI-staining based flow cytometric analysis (reference value: 30.62%). It is filed as functional.
For assay [10], the system named is HeLa. In words: Induction of cell cycle arrest in human HeLa cells assessed as accumulation at S phase at 12 uM after 24 hrs by RNase A/PI-staining based flow cytometric analysis (reference value: 17.17%). The class given is functional.
Assay [11] deals with HeLa. Put plainly: Induction of apoptosis in human HeLa cells at 4 to 12 uM incubated for 48 hrs by Hoechst 33342 staining based fluorescence microscopy. It is filed as functional, cell-based. The following applies: dose 4-12 µM.
The subject of assay [12] is HeLa. Put plainly: Induction of apoptosis in human HeLa cells assessed as early apoptotic cells at 4 uM measured after 24 hrs by Annexin-V/FITC and propidium iodide staining based flow cytometry (reference value: 1.60%). It is filed as functional.
For assay [13], the system named is HeLa. Put plainly: Induction of apoptosis in human HeLa cells assessed as early apoptotic cells at 8 uM measured after 24 hrs by Annexin-V/FITC and propidium iodide staining based flow cytometry (reference value: 1.60%). The class given is functional.
Assay [14] concerns HeLa. Put plainly: Induction of apoptosis in human HeLa cells assessed as late apoptotic cells at 8 uM measured after 24 hrs by Annexin-V/FITC and propidium iodide staining based flow cytometry (reference value: 3.4%). The class given is functional.
The subject of assay [15] is HeLa. Put plainly: Induction of apoptosis in human HeLa cells assessed as early apoptotic cells at 12 uM measured after 24 hrs by Annexin-V/FITC and propidium iodide staining based flow cytometry (reference value: 1.60%). The class given is functional.
Assay [16] relates to HeLa. In words: Induction of apoptosis in human HeLa cells assessed as late apoptotic cells at 12 uM measured after 24 hrs by Annexin-V/FITC and propidium iodide staining based flow cytometry (reference value: 3.4%). The class given is functional.
The test system of assay [17] is HeLa. In words: Inhibition of PI3K/AKT pathway in human HeLa cells assessed as reduction phosphorylated PI3K level upto 12 uM by Western blot analysis. It is filed as cell-based. The following applies: dose microM <=12.
Assay [18] relates to HeLa. In words: Antitumor activity against human HeLa cells xenografted in orally dosed BALB/c mouse assessed as reduction in tumor volume measured for 24 days. The following applies: dose 5-15 mg/kg, time 24.0 day. The class given is functional, organism-based.
Assay [19] relates to Mus musculus. Put plainly: Reduction in p-PI3K levels in BALB/c mouse tumor xenografted with human HeLa cells at 5 to 15 mg/kg, po by Western blot analysis. It is filed as functional, organism-based. The following applies: Neoplasm, dose 5-15 mg/kg.
Assay [20] relates to Mus musculus. In words: Reduction in p-AKT levels in BALB/c mouse tumor xenografted with human HeLa cells at 5 to 15 mg/kg, po by Western blot analysis. It is filed as functional, organism-based. The following applies: Neoplasm, dose 5-15 mg/kg.
In assay [21] the test system is Mus musculus. In words: Reduction in p-mTOR levels in BALB/c mouse tumor xenografted with human HeLa cells at 5 to 15 mg/kg, po by Western blot analysis. The following applies: Neoplasm, dose 5-15 mg/kg. It is filed as functional, organism-based.

Phosphatidylinositol 4,5-bisphosphate 3-kinase catalytic subunit beta isoform, sequence (P42338 whole entry, canonical isoform): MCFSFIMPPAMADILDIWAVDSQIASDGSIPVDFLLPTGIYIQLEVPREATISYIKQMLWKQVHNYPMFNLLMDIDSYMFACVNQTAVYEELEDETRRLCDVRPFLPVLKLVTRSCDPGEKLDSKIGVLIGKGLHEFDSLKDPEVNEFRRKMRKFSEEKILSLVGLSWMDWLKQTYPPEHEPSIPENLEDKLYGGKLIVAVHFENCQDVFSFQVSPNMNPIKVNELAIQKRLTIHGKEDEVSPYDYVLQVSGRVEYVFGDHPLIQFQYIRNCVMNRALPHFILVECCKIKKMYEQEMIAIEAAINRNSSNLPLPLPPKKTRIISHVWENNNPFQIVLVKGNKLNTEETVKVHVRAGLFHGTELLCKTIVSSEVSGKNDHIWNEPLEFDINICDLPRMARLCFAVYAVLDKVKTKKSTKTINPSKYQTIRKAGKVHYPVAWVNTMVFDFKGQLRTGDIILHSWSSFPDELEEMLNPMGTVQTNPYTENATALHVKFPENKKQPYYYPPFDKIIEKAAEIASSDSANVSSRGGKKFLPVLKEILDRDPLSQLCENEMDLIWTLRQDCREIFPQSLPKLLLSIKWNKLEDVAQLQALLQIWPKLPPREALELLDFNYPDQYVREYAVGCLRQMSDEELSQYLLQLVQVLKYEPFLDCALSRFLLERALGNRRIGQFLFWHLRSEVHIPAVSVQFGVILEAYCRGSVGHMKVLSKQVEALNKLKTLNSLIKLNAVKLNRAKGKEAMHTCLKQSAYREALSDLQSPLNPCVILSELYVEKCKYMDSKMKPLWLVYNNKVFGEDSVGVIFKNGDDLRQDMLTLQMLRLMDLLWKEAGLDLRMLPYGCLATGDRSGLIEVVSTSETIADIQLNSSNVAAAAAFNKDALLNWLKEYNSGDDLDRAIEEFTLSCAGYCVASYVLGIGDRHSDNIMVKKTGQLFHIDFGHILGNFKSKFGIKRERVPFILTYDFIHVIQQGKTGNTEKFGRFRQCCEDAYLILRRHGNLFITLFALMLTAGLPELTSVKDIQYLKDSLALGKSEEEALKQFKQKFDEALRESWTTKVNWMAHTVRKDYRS
Phosphatidylinositol 4,5-bisphosphate 3-kinase catalytic subunit alpha isoform, sequence (P42336 whole entry, canonical isoform): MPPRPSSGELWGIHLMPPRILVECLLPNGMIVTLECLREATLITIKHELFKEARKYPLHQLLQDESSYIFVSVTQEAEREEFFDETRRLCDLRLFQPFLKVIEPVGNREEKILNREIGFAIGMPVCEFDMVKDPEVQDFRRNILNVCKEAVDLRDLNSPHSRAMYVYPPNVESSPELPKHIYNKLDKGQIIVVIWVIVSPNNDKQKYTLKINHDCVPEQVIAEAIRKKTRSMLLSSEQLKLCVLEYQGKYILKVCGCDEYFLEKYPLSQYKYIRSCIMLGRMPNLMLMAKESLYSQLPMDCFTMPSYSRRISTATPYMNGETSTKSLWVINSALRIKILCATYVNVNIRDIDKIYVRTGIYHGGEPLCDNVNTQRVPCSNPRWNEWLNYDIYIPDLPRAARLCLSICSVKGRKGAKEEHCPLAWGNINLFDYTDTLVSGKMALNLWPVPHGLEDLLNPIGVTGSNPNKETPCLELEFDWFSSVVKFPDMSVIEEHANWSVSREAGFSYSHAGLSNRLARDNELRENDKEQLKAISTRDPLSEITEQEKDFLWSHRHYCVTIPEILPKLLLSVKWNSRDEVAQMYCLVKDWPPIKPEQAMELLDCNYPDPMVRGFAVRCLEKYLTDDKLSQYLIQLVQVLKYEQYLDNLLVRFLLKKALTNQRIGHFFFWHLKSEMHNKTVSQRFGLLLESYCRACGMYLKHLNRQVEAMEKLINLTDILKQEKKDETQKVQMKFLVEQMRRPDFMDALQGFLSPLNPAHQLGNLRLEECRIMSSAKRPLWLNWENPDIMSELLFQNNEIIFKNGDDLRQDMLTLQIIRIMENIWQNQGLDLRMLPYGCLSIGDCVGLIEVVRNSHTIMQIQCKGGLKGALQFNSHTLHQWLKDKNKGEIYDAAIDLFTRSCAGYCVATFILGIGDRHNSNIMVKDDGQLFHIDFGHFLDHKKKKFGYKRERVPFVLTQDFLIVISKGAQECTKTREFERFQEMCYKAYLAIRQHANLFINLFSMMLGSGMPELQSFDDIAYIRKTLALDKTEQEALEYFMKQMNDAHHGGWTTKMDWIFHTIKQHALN
Phosphatidylinositol 4,5-bisphosphate 3-kinase catalytic subunit gamma isoform, sequence (P48736 whole entry, canonical isoform): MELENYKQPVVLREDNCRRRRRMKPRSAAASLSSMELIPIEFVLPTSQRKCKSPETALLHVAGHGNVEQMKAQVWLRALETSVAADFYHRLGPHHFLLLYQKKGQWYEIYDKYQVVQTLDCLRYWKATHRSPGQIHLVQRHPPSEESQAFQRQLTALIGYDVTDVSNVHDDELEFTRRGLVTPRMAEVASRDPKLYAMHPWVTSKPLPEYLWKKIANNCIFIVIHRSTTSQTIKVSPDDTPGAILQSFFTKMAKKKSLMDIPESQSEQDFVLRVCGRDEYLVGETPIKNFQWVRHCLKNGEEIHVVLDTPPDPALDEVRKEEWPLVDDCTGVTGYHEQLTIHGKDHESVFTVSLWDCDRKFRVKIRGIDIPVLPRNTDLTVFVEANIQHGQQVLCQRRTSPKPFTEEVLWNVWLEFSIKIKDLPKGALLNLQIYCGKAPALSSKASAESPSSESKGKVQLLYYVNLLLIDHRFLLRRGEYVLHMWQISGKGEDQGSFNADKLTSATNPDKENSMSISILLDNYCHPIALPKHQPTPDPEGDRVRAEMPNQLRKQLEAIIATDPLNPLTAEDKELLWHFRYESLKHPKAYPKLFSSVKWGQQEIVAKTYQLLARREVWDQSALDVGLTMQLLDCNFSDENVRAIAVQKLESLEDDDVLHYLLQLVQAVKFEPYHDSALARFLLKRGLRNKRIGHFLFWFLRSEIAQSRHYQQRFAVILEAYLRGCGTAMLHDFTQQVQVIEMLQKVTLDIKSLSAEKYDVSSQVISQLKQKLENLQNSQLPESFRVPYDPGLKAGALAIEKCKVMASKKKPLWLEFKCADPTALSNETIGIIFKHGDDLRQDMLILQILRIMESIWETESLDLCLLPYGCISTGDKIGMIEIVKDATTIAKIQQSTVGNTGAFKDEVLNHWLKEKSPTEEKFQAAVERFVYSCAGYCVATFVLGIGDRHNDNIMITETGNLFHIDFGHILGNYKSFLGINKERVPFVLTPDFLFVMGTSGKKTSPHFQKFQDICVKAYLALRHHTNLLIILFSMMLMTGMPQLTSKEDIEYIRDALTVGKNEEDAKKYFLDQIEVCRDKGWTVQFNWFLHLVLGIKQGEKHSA

Take `O=S(=O)(c1ccc(O)cc1)N1CCN(c2nc(NCCN3CCOCC3)nc(N3CCOCC3)n2)CC1`: the IC50 in the assay with MDA-MB-231 was found to be 15800 nM; in assay [1], 3.41 nM; in [2] it was 12.3 nM; in assay [3], 24.6 nM; in [4], 35.3 nM; in the assay on MCF7, 16300 nM. Moreover, in the assay with HepG2, the IC50 was determined as 12200 nM. In addition, the Activity result in the assay on HeLa [5] was “Dose-dependent effect”; with HeLa [6] it was 59.18%; in the assay with HeLa [7], 15.43%; in the assay on HeLa [8] it was 75.03%; in the assay on HeLa [9], 14.32%; with HeLa [10], 10.65%. For the same molecule, the Activity in the assay on HeLa [12] was 2.71%; with HeLa [13], 1.84%; in the assay with HeLa [14] it was 16.94%; with HeLa [15] it was 2.1%; with HeLa [16] it was 17.98%; with HeLa [18], “Dose-dependent effect”. Besides, the outcome in the assay on HeLa [11] was Active. Also, in the assay on HeLa [17], the inhibition result was “Dose-dependent effect”. Further, the inhibition entry in the assay with Mus musculus [19], with Mus musculus [20] and in the assay with Mus musculus [21] was “Active” in each case.

One may read the IC50 as the midpoint of a concentration-inhibition curve.
